# How the values were obtained:
# KG-1a AML cells = experiment: KG-1a cell viability by flow cytometry; format: cell-based, human; details: 24 hr
# Text: (FIG. 29A) Quantification of cell viability (left panel) and splicing modulation (RFP/GFP ratios, right panel) by flow cytometry analyses of the human AML cell line (KG-1a) stably transduced with a lentiviral dual-fluorescence splicing reporter vector and treated with increasing concentrations of Rebecsinib.
# For generation of stably transduced splicing reporter cell lines, a previously described splicing reporter construct^31 was cloned into a lentiviral vector backbone.^52 KG-1a cells were transduced with the dual-fluorescent lentiviral splicing reporter vector, treated with various concentrations of Rebecsinib (3-fold serial dilutions from 3 μM to 4 nM) for 24 hr, washed followed by DAPI staining, and analyzed by flow cytometry for cell viability and RFP/GFP fluorescence intensity. Results were from duplicate wells of each condition. Viability of cells treated with DMSO (0.5% final concentration) was set as 100%. Nonlinear regression curve fit analysis was carried out using Prism software (GraphPad) to determine ECso values for viability and mean fluorescence intensity (MFI) of RFP and GFP.
# [1] = system: ADAR1, CD44-012, PTK2B-202, MCL1 transcripts; experiment: Transcripts in human CD34+ cells from treated engrafted sAML mice (qRT-PCR, RNA-seq); format: in vivo
# Procedure: FIG. […]
# For RNA editing analyses of whole transcriptome sequencing data, previous datasets were utilized from CD34^+ cells isolated from the spleens of sAML50261-engrafted mice treated once weekly with Rebecsinib in a dose-response assay (5 or 10 mg/kg),^14 along with CD34^+ cells harvested from mice that were serially transplanted with CD34+ cells from sAML50261-engrafted mice that had been treated twice weekly with Rebecsinib at 10 mg/kg (no further treatment was delivered to serial transplant recipients). Due to limiting number of cells remaining after treatment, cells were pooled from n=4 to 5 mice per condition for sequencing. RNA editing analysis was performed as previously described.^5
# (§1) For quantitative analysis of splice isoform expression, RNA editing rates, and whole gene expression by qRT-PCR, cells or tissue fragments were harvested in RNA lysis buffer and total RNA was extracted using RNeasy mini or micro extraction kits (QIAGEN, Germantown, MD) following the manufacturer's protocol including a DNase incubation step to digest any trace genomic DNA present. Levels of ADAR1 variants and LSC-specific transcripts were quantified by qRT-PCR as previously described.^14 RNA-editing site-specific qRT-PCR (RESSqPCR) was performed for variants in AZIN1 transcripts.^53 Additional species-specific primers were also designed to quantify intron retention rates in cells treated with Rebecsinib as a biomarker of response to RNA splicing modulation. Specifically, for the two-step SYBR-green based assays, as previously described,^7,14,53 100-1000 ng of RNA were subjected to cDNA synthesis using the SUPERSCRIPT III™ (ThermoFisher Scientific) kit followed by qRT-PCR using SYBR GreenER (ThermoFisher Scientific) master mix according to the manufacturer's recommended procedures. qRT-PCR was performed using SYBR GREENER SUPER MIX™ (Life Technologies) on BioRad iQ5™, C1000 TOUCH™, or BioRad CFX384™ instruments. Human splice isoform-specific, RNA editing site-specific qPCR (RESSqPCR)^53. Primer sets that have not been previously published were designed and tested for efficiency followed by analyses in samples exposed to Rebecsinib, with species-specific HPRT primers used as controls. Samples with Ct<35 for the species-specific reference gene, HPRT, were included in analyses. Relative mRNA expression values were calculated using the 2^−ΔCT method, with normalization to untreated or vehicle-treated controls.^54
# In humanized mouse models, sAML cells (CD34^+) from two unique […] patient samples that were splicing factor mutated or unmutated were utilized, including sAML50261 and sAML2008-5.^14 For in vivo efficacy and therapeutic index studies, sAML CD34^+ cells, or normal human cord blood-derived or aged bone marrow-derived HSPCs (CD34^+), were transplanted (50,000-200,000 cells per mouse) intrahepatically into neonatal Rag2^−/−γc^−/− mice, or intravenously into adult NSG-SGM3 mice (Jackson Laboratories, Bar Harbor, ME). A subset of experiments was performed with normal aged bone marrow cells that were transduced with the lentiviral ADAR1 nanoluc-GFP reporter vector prior to transplant. For transplantation into adult mice, animals were irradiated with ^137Cs at a dose of 150 cGy 24 hr before IV transplantation. After engraftment levels reached >1% human CD45^+ hematopoietic cells in the peripheral blood, animals were distributed among treatment groups for treatment with Rebecsinib or vehicle control essentially as previously described, with an increased dosing regimen of twice weekly (versus once weekly in prior studies)^14 and an optimized in vivo formulation (2% w/w EtOH, 5% w/v KOLLIPHOR HS™ 15 in 0.9% saline). […]
# SF3B3 = SF3B3 splice biomarker analysis in human CD45+ cells from normal HSPC engrafted mice; format: in vivo
# Text: After completion of treatment and engraftment analyses of in vivo normal HSPC assays, total human hematopoietic cells (CD45^+) were selected for splice biomarker analyses to determine sensitivity of normal human hematopoietic cells to Rebecsinib compared with sAML LSC.
# as §1, with “controls.^54 […]” for “controls.^54”
# [2] = CD34+ cells, sAML50261 engrafted mice, vs vehicle
compound,measurement,setting,value
CC[C@H](OC)[C@@H](C)[C@H]1O[C@@H]1[C@@H](O)[C@H](C)/C=C/C=C(\C)[C@H]1OC(=O)C[C@H](O)CC[C@@](C)(O)[C@@H](OC(C)=O)/C=C/[C@@H]1C [Rebecsinib],KG-1a AML cell survival,KG-1a AML cells,impaired CD34^+ KG-1a AML cell survival
same,IC50,"KG-1a AML cells; Homo sapiens, CD34+ KG-1a AML cell survival and RFP to GFP reporter expression",~100 nM
same,MCL1-S isoform expression in human CD34+ cells,[1]; CD34+ cells from bone marrows of treated mice,increase in the pro-apoptotic MCL1-S isoform expression
same,CD44-012 splice isoform,[1]; [2],significant reduction
same,PTK2B-202 splice isoform,[1]; [2],significant reduction
same,total ADAR1 RNA expression by qRT-PCR,[1]; [2],significant reduction in total ADAR1 RNA expression
same,MCL1 splice isoform switching,"[1]; mice treated with 5 or 10 mg/kg, RNA-seq",splice isoform switching of MCL1-L to MCL1-S
same,ADAR1 transcript splicing (RNA-seq),"[1]; sAML50261 engrafted mice, Rebecsinib-treated samples",unique retained intron regions and alternative splice site usage
same,SF3B3 intron retention in bone marrow,SF3B3; normal human CD45+ cells,no changes in SF3B3 intron retention
same,SF3B3 intron retention in spleen,SF3B3; normal human CD45+ cells,trend toward changes in the spleen that were not statistically significant
same,sensitivity of sAML LSC to splicing modulation versus normal HSPCs,"SF3B3; therapeutic index, humanized mouse models",sAML LSC are significantly more sensitive to splicing modulation than normal HSPCs

# Source: patent publication US20260364072A1, “METHODS FOR PROMOTING EXPANSION OF HUMAN CD34+ CELLS IN VIVO AND FOR PROMOTING NEURAL REGENERATION” (THE REGENTS OF THE UNIVERSITY OF CALIFORNIA, priority 2023, published 2026)
